{"source": "ChEMBL document CHEMBL1201862", "about": "“PubChem BioAssay data set” (2004)", "key": {"[1]": {"molecular_target": "Glyceraldehyde-3-phosphate dehydrogenase (Homo sapiens, UniProt P04406)", "sequence (P04406 whole entry)": "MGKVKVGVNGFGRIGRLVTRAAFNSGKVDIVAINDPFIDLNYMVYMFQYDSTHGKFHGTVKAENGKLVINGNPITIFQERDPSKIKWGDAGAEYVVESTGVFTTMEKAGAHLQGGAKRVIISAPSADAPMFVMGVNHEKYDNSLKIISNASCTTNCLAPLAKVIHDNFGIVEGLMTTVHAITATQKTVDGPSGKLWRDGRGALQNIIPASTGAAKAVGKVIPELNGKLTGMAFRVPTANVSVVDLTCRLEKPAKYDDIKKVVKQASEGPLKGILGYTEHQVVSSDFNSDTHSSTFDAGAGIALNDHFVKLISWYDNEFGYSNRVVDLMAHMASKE"}, "Bcl-2-related protein A1 [2]": {"molecular_target": "T1, Bcl-2-related protein A1 (Mus musculus, UniProt Q07440)", "T1 sequence (Q07440 whole entry)": "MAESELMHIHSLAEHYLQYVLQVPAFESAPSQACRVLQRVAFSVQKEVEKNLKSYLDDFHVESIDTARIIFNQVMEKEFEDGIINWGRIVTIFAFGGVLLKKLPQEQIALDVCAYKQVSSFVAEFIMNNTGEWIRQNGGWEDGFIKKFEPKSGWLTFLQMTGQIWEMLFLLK", "assay": "Bfl-1 binding inhibitors, SAR follow-up, biochemical, fluorescence polarization (AID 1070)"}, "Bcl-2-related protein A1 [3]": {"molecular_target": "T1, Bcl-2-related protein A1", "assay": "Bfl-1 inhibitors blocking BH3 peptide binding, confirmation, biochemical, TR-FRET, mouse Bfl-1 (AID 621);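 further: TR-FRET binding of GST-Bfl-1 to FITC-labelled Bid peptide via terbium antibody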"}, "[4]": {"molecular_target": "Sphingosine 1-phosphate receptor 3 (Homo sapiens, UniProt Q99500)", "sequence (Q99500 whole entry)": "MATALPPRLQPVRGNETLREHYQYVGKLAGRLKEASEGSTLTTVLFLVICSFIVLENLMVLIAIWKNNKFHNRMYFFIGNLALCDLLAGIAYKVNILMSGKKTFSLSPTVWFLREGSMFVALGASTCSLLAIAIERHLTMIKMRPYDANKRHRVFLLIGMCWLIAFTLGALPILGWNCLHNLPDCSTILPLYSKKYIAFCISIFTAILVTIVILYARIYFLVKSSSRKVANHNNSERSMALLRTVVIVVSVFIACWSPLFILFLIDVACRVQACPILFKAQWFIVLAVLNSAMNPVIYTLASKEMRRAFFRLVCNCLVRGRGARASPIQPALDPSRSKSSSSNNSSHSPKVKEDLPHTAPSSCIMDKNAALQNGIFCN", "assay": "Dose Response Cell-Based Assay for Agonists of the Sphingosine 1-Phosphate Receptor 3 (S1P3): Purchased Analogues. [Related pubchem assays: 373, 439 ]", "format": "functional"}, "[5]": {"molecular_target": "Sphingosine 1-phosphate receptor 1 (Homo sapiens, UniProt P21453)", "sequence (P21453 whole entry)": "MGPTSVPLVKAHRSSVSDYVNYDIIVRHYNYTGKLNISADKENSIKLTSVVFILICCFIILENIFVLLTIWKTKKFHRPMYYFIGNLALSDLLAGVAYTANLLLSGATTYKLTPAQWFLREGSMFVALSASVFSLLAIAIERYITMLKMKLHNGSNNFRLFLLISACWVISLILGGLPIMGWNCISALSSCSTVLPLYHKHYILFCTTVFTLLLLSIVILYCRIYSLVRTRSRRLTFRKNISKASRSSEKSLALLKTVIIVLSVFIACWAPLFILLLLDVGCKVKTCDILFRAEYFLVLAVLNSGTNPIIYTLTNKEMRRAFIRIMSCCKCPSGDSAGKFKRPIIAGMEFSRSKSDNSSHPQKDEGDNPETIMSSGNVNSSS", "assay": "Dose Response Cell-Based Assay for Agonists of the Sphingosine 1-Phosphate Receptor 1 (S1P1): Purchased Analogues. [Related pubchem assays: 1192, 373, 439 ]", "format": "functional"}, "[6]": {"molecular_target": "Sphingosine 1-phosphate receptor 2 (Homo sapiens, UniProt O95136)", "sequence (O95136 whole entry)": "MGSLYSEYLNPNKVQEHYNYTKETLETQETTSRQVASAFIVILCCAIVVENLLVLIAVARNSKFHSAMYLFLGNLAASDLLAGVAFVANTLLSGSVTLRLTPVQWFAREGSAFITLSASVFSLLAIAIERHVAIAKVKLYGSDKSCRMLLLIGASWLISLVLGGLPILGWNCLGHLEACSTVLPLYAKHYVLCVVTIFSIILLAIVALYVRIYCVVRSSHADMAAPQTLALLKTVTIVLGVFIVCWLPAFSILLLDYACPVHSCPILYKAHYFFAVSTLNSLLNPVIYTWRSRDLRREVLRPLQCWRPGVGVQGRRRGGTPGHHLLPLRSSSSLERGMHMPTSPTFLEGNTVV", "assay": "Dose Response Cell-Based Assay for Agonists of the Sphingosine 1-Phosphate Receptor 2 (S1P2): Purchased Analogues. [Related pubchem assays: 1192, 373, 439 ]", "format": "functional"}, "[7]": {"molecular_target": "Aryl hydrocarbon receptor (Homo sapiens, UniProt P35869)", "sequence (P35869 whole entry)": "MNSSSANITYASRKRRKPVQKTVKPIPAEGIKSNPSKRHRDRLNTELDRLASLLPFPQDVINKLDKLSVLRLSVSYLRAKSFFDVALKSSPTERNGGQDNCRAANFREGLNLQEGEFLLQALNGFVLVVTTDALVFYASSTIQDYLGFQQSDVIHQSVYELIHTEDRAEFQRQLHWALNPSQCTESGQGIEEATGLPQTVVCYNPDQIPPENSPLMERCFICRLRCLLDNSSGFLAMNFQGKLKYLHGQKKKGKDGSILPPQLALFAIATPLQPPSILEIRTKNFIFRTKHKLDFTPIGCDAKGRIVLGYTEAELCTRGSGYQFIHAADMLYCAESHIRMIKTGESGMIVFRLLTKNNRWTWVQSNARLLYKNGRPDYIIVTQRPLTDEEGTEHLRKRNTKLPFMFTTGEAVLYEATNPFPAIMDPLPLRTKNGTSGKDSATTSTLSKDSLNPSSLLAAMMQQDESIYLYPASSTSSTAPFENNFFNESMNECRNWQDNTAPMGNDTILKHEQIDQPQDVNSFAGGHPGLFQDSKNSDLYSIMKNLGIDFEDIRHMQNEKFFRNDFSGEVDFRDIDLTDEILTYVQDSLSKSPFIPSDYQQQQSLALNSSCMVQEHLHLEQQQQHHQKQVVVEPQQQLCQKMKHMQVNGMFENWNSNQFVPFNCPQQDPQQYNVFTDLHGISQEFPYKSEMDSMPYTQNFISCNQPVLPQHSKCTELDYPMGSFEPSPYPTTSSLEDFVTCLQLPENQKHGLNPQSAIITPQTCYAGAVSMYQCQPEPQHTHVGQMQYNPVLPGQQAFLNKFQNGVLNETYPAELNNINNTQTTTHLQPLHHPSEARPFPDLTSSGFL", "assay": "Luminescence-based cell-based high throughput dose response assay for activators of the Aryl Hydrocarbon Receptor (AHR). [Related pubchem assays: 2796 (Primary screen (AHR activators in singlicate)), 2845 (Confirmation screen (AHR activators in triplicate)), 434939 (Counterscreen (PXR activators in triplicate)), 2804 (Summary (AHR activators))]", "format": "ADME"}, "[8]": {"assay": "Luminescence Cell-Based Dose Confirmation to Identify Activators of 5'UTR Stem-Loop Driven Alpha-Synuclein mRNA Translation in H4 Neuroglioblastoma Cells. [Related pubchem assays: 1829 (Project Summary), 1814 (Primary HTS)]", "format": "functional"}, "H4": {"test_system": "H4", "assay": "Luminescence Cell-Based Dose Response HTS to Identify Activators of 5'UTR Stem-Loop Driven Prion Protein mRNA Translation in H4 Neuroglioblastoma Cells. [Related pubchem assays: 1829 (Project Summary), 1814 (Primary HTS)]", "format": "functional", "details": "Homo sapiens"}, "[9]": {"assay": "Luminescence Cell-Based Dose Response to Identify Activators of Luciferase Translation or Activity in H4-C Neuroglioblastoma Cells. [Related pubchem assays: 1829 (Project Summary), 1814 (Primary HTS)]", "format": "functional"}, "[10]": {"assay": "Luminescence Cell-Based Dose Confirmation HTS to Identify Activators of 5'UTR Stem-Loop Driven Alpha-Synuclein mRNA Translation in H4 Neuroglioblastoma Cells. [Related pubchem assays: 1829 (Project Summary), 1814 (Primary HTS)]", "format": "functional"}, "[11]": {"assay": "Luminescence Cell-Based Dose Response to Identify Activators of 5'UTR Stem-Loop Driven Prion Protein mRNA Translation in H4-C Neuroglioblastoma Cells. [Related pubchem assays: 1829 (Project Summary), 1814 (Primary HTS)]", "format": "functional"}, "Cytochrome P450 2C9": {"molecular_target": "Cytochrome P450 2C9 (Homo sapiens, UniProt P11712)", "sequence (P11712 whole entry)": "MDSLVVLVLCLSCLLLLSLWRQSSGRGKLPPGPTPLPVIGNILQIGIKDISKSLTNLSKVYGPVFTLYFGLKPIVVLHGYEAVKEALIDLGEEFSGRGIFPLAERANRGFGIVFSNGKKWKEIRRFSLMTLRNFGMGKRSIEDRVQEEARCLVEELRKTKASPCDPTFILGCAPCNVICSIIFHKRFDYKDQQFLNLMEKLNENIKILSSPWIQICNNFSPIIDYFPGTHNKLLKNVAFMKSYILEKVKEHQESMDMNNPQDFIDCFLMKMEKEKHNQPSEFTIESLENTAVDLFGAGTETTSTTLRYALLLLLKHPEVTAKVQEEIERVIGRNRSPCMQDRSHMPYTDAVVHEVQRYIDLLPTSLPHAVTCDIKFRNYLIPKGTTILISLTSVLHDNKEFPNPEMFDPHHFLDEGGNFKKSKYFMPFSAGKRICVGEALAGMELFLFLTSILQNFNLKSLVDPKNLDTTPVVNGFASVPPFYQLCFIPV", "details": "Potency"}, "Cytochrome P450 2C19": {"molecular_target": "Cytochrome P450 2C19 (Homo sapiens, UniProt P33261)", "sequence (P33261 whole entry)": "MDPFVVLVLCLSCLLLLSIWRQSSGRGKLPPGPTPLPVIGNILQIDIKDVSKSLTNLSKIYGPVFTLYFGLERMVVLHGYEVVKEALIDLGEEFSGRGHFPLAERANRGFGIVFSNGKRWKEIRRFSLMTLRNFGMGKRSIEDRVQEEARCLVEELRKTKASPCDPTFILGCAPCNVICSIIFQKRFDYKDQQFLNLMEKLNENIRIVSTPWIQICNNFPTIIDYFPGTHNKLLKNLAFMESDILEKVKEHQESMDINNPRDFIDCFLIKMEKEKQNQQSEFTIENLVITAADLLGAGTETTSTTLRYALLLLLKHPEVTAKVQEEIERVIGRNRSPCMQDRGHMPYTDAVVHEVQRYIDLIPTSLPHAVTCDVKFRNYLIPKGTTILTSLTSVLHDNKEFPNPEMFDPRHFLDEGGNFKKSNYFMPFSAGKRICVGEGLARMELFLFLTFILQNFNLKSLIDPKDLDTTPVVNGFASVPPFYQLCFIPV", "assay": "qHTS Assay for Inhibitors and Substrates of Cytochrome P450 2C19. [Related pubchem assays: 410 ]", "format": "ADME", "details": "read-out: Potency"}}, "note": "Active and inactive are the calls of the source."}
{"smiles": "O=C1C(Cl)=C(N2CCN(c3cccc(C(F)(F)F)c3)CC2)C(=O)N1c1ccc(Cl)c(Cl)c1", "values": [{"measurement": "IC50", "setting": "[1]", "value": "> 100 µM (not active)"}, {"measurement": "IC50", "setting": "Bcl-2-related protein A1 [2]", "value": "> 100 µM (not active)"}, {"measurement": "IC50", "setting": "Bcl-2-related protein A1 [3]", "value": "> 100 µM (not active)"}]}
{"smiles": "O=C(NC1CCCCC1)c1cc(-c2ccccc2)on1", "values": [{"measurement": "EC50", "setting": "[4]", "value": "> 50 µM (not active)"}, {"measurement": "EC50", "setting": "[5]", "value": "0.897 µM (active)"}, {"measurement": "EC50", "setting": "[6]", "value": "> 10 µM (not active)"}]}
{"smiles": "Cc1ccc(-c2cc(-c3cccs3)[nH]n2)c(O)c1", "values": [{"measurement": "EC50", "setting": "[7]", "value": "1.21 µM (active)"}]}
{"smiles": "CCc1cc2c(=O)n3c(nc2s1)-c1[nH]c2ccc(OC)cc2c1CC3", "values": [{"measurement": "EC50", "setting": "[8]", "value": "0.498 µM (active)"}, {"measurement": "EC50", "setting": "H4", "value": "3.18 µM (active)"}, {"measurement": "EC50", "setting": "[9]", "value": "0.354 µM (active)"}, {"measurement": "EC50", "setting": "[10]", "value": "< 0.1 µM (active)"}, {"measurement": "EC50", "setting": "[11]", "value": "> 12 µM (not active)"}]}
{"smiles": "COc1ccc(C(=O)[C@H]2[C@H]3[C@@H](C(=O)[C@@H]4OC[C@H]3O4)[C@H]3C=Cc4ccccc4N32)c(OC)c1", "values": [{"measurement": "AC50", "setting": "Cytochrome P450 2C9", "value": "31.6 µM (inconclusive)"}, {"measurement": "AC50", "setting": "Cytochrome P450 2C19", "value": "31.6 µM (inconclusive)"}]}
